In ChEMBL document CHEMBL2390942, “Novel 3,5-bis(arylidene)-4-piperidone dimers: potent cytotoxins against colon cancer cells” (Eur J Med Chem, 2013):
The source made the active and inactive calls. The calls are words filed in the database; no cut-off is given here.

Assays:
HT-29 [1] = assay: Ratio of 5-fluorouracil IC50 to compound IC50 for human HT-29 cells after 48 hrs by sulforhodamine B assay; type: functional
HT-29 [2] = assay: Cytotoxicity against human HT-29 cells after 48 hrs by sulforhodamine B assay; type: functional, cell-based; settings: HT-29, 48 h
HCT-116 [3] = assay: Cytotoxicity against human HCT116 cells after 48 hrs by sulforhodamine B assay; type: functional, cell-based; settings: HCT-116, 48 h
HCT-116 [4] = assay: Ratio of 5-fluorouracil IC50 to compound IC50 for human HCT116 cells after 48 hrs by sulforhodamine B assay; type: functional
Mus musculus = assay: Reduction in hepatic glutathione levels in ip dosed mouse relative to control; type: functional; design: scale not given: the % may be the effect or the level left
HCT-116 [5] = assay: Cell cycle arrest in human HCT116 cells assessed as accumulation at S phase at 1 uM after 48 hrs by propidium iodide staining-based FACS flow cytometric analysis; type: functional
HT-29 [6] = assay: Cell cycle arrest in human HT-29 cells assessed as accumulation at S phase at 1 uM after 48 hrs by propidium iodide staining-based FACS flow cytometric analysis; type: functional
HCT-116 [7] = assay: Induction of apoptosis in human HCT116 cells assessed as live cells at 1 uM after 24 hrs by Annexin V-FITC and propidium iodide staining-based FACS flow cytometric analysis (reference value: 59.15%); type: functional
HCT-116 [8] = assay: Cell cycle arrest in human HCT116 cells assessed as accumulation at G2/M phase at 1 uM after 48 hrs by propidium iodide staining-based FACS flow cytometric analysis; type: functional
HCT-116 [9] = assay: Induction of apoptosis in human HCT116 cells assessed as dead cells at 1 uM after 48 hrs by Annexin V-FITC and propidium iodide staining-based FACS flow cytometric analysis (reference value: 49.93%); type: functional
HCT-116 [10] = assay: Induction of apoptosis in human HCT116 cells assessed as apoptotic cells at 1 uM after 48 hrs by Annexin V-FITC and propidium iodide staining-based FACS flow cytometric analysis (reference value: 2.59%); type: functional
HCT-116 [11] = assay: Induction of apoptosis in human HCT116 cells assessed as dead cells at 1 uM after 24 hrs by Annexin V-FITC and propidium iodide staining-based FACS flow cytometric analysis (reference value: 38.02%); type: functional
HCT-116 [12] = assay: Induction of apoptosis in human HCT116 cells assessed as live cells at 1 uM after 48 hrs by Annexin V-FITC and propidium iodide staining-based FACS flow cytometric analysis (reference value: 47.40%); type: functional
HT-29 [13] = assay: Cell cycle arrest in human HT-29 cells assessed as accumulation at G2/M phase at 1 uM after 48 hrs by propidium iodide staining-based FACS flow cytometric analysis; type: functional
HCT-116 [14] = assay: Induction of apoptosis in human HCT116 cells assessed as apoptotic cells at 1 uM after 24 hrs by Annexin V-FITC and propidium iodide staining-based FACS flow cytometric analysis (reference value: 2.82%); type: functional

Structure (SMILES) | Ratio IC50 (HT-29 [1]) | IC50 (HT-29 [2]) | IC50 (HCT-116 [3]) | Ratio IC50 (HCT-116 [4]) | also measured
CN(C)c1ccc(/C=C2/CN(C(=O)CC(=O)N3C/C(=C\c4ccc(N(C)C)cc4)C(=O)/C(=C/c4ccc(N(C)C)cc4)C3)C/C(=C\c3ccc(N(C)C)cc3)C2=O)cc1 | <1 | > 25 µM | > 25 µM | <1 | 
Cc1ccc(/C=C2/CN(C(=O)CC(=O)N3C/C(=C\c4ccc(C)cc4)C(=O)/C(=C/c4ccc(C)cc4)C3)C/C(=C\c3ccc(C)cc3)C2=O)cc1 | 32 | 0.2 µM | 0.41 µM | 11 | 
O=C1/C(=C/c2ccc(Cl)cc2)CN(C(=O)C(=O)N2C/C(=C\c3ccc(Cl)cc3)C(=O)/C(=C/c3ccc(Cl)cc3)C2)C/C1=C\c1ccc(Cl)cc1 | 8 | 0.78 µM | 0.03 µM | 151 | 
O=C1/C(=C\c2ccc(O)cc2)CN(C(=O)CC(=O)N2C/C(=C\c3ccc(O)cc3)C(=O)/C(=C/c3ccc(O)cc3)C2)C/C1=C\c1ccc(O)cc1 | 14 | 0.46 µM | 0.72 µM | 6 | 
COc1ccc(/C=C2\CN(C(=O)C(=O)N3C/C(=C\c4ccc(OC)c(OC)c4)C(=O)/C(=C/c4ccc(OC)c(OC)c4)C3)C/C(=C\c3ccc(OC)c(OC)c3)C2=O)cc1OC | 11 | 0.568 µM | 0.03 µM | 151 | 
COc1ccc(/C=C2/CN(C(=O)CC(=O)N3C/C(=C\c4ccc(OC)cc4)C(=O)/C(=C/c4ccc(OC)cc4)C3)C/C(=C\c3ccc(OC)cc3)C2=O)cc1 | 8 | 0.77 µM | 0.06 µM | 75 | 
O=C1/C(=C\c2ccccc2)CN(CCCN2C/C(=C\c3ccccc3)C(=O)/C(=C/c3ccccc3)C2)C/C1=C\c1ccccc1 | 3 | 2.15 µM | 0.68 µM | 7 | 
O=C(O)/C=C/C(=O)N1C/C(=C\c2ccccc2)C(=O)/C(=C/c2ccccc2)C1 |  |  |  |  | Activity (Mus musculus): 29%
COc1cc(/C=C2/CN(C(=O)CC(=O)N3C/C(=C\c4cc(OC)c(OC)c(OC)c4)C(=O)/C(=C/c4cc(OC)c(OC)c(OC)c4)C3)C/C(=C\c3cc(OC)c(OC)c(OC)c3)C2=O)cc(OC)c1OC | 159 | 0.04 µM | 0.02 µM | 226 | 
CN(C)c1ccc(/C=C2\CN(C(=O)C(=O)N3C/C(=C\c4ccc(N(C)C)cc4)C(=O)/C(=C/c4ccc(N(C)C)cc4)C3)C/C(=C\c3ccc(N(C)C)cc3)C2=O)cc1 | 0.34 | 18.6 µM | 27.4 µM | 0.17 | 
COc1cc(/C=C2\CN(C(=O)C(=O)N3C/C(=C\c4cc(OC)c(OC)c(OC)c4)C(=O)/C(=C/c4ccc(OC)c(OC)c4OC)C3)C/C(=C\c3cc(OC)c(OC)c(OC)c3)C2=O)cc(OC)c1OC | 24 | 0.27 µM | 0.27 µM | 17 | 
O=C1/C(=C/c2ccccc2)CN(C(=O)C(=O)N2C/C(=C\c3ccccc3)C(=O)/C(=C/c3ccccc3)C2)C/C1=C\c1ccccc1 | 454 | 0.014 µM | 0.04 µM | 113 | 
Cc1ccc(/C=C2\CN(C(=O)C(=O)N3C/C(=C\c4ccc(C)cc4)C(=O)/C(=C/c4ccc(C)cc4)C3)C/C(=C\c3ccc(C)cc3)C2=O)cc1 | 49 | 0.129 µM | 0.09 µM | 50 | 
O=C1/C(=C/c2ccc(F)cc2)CN(C(=O)C(=O)N2C/C(=C\c3ccc(F)cc3)C(=O)/C(=C/c3ccc(F)cc3)C2)C/C1=C\c1ccc(F)cc1 | 212 | 0.03 µM | 0.02 µM | 226 | 
O=C1/C(=C\c2ccc(Cl)cc2)CN(C(=O)CC(=O)N2C/C(=C\c3ccc(Cl)cc3)C(=O)/C(=C/c3ccc(Cl)cc3)C2)C/C1=C\c1ccc(Cl)cc1 | 71 | 0.09 µM | 0.05 µM | 90 | 
O=C1/C(=C\c2ccc(F)cc2)CN(C(=O)CC(=O)N2C/C(=C\c3ccc(F)cc3)C(=O)/C(=C/c3ccc(F)cc3)C2)C/C1=C\c1ccc(F)cc1 | 35 | 0.18 µM | 0.6 µM | 8 | 
O=C1/C(=C\c2ccc(Cl)c(Cl)c2)CN(C(=O)CC(=O)N2C/C(=C\c3ccc(Cl)c(Cl)c3)C(=O)/C(=C/c3ccc(Cl)c(Cl)c3)C2)C/C1=C\c1ccc(Cl)c(Cl)c1 | 1.1 | 6.05 µM | 26.7 µM | 0.17 | 
O=C1/C(=C/c2ccccc2)CNC/C1=C\c1ccccc1 |  |  |  |  | Activity (Mus musculus): 19%
COc1ccc(/C=C2/CN(C(=O)CC(=O)N3C/C(=C\c4ccc(OC)c(OC)c4)C(=O)/C(=C/c4ccc(OC)c(OC)c4)C3)C/C(=C\c3ccc(OC)c(OC)c3)C2=O)cc1OC | 20 | 0.31 µM | 0.18 µM | 25 | 
O=C1/C(=C\c2ccccc2)CN(C(=O)CC(=O)N2C/C(=C\c3ccccc3)C(=O)/C(=C/c3ccccc3)C2)C/C1=C\c1ccccc1 | 2117 | 0.003 µM | 0.02 µM | 226 | 
O=c1[nH]cc(F)c(=O)[nH]1 [FLUOROURACIL] | 1 | 6.35 µM | 4.52 µM | 1 | 
COc1ccc(/C=C2\CN(C(=O)C(=O)N3C/C(=C\c4ccc(OC)cc4)C(=O)/C(=C/c4ccc(OC)cc4)C3)C/C(=C\c3ccc(OC)cc3)C2=O)cc1 | 37 | 0.17 µM | 0.02 µM | 226 | Activity (HCT-116 [5]): inactive; Activity (HT-29 [6]): inactive; Activity (HCT-116 [7]): 44.4%; Activity (HCT-116 [8]): inactive; Activity (HCT-116 [9]): 37.82%; Activity (HCT-116 [10]): 38.51%; Activity (HCT-116 [11]): 21.63%; Activity (HCT-116 [12]): 24.47%; Activity (HT-29 [13]): inactive; Activity (HCT-116 [14]): 34.93%
COc1cc(/C=C/C(=O)CC(=O)/C=C/c2ccc(O)c(OC)c2)ccc1O [CURCUMIN] | 0.48 | 13.2 µM | 11.5 µM | 0.39 | 
